Laboratory results taken from PubChem BioAssay (NCI).
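Each compound was tested at five concentrations against cells in 96-well plates for 48 hours. GI50 is the concentration that inhibits growth by half. TGI denotes the concentration required for complete inhibition of growth.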

How the values were obtained:
Experiment in all cases: NCI-60 cell line screen, 48 h
HCT-15 colon = test system: HCT-15 colon
HCC-2998 colon = test system: HCC-2998 colon
COLO 205 colon = test system: COLO 205 colon
SF-539 CNS = test system: SF-539 CNS
LOX IMVI melanoma = test system: LOX IMVI melanoma
A549 NSCLC = test system: A549 NSCLC
MOLT-4 leukemia = test system: MOLT-4 leukemia
SK-MEL-5 melanoma = test system: SK-MEL-5 melanoma
OVCAR-8 ovarian = test system: OVCAR-8 ovarian
HCT-116 colon = test system: HCT-116 colon

| Structure (SMILES) | GI50 (HCT-15 colon) [µM] | TGI (HCT-15 colon) [µM] | GI50 (HCC-2998 colon) [µM] | TGI (HCC-2998 colon) [µM] | GI50 (COLO 205 colon) [µM] | TGI (COLO 205 colon) [µM] | GI50 (SF-539 CNS) [µM] | TGI (SF-539 CNS) [µM] | GI50 (LOX IMVI melanoma) [µM] | TGI (LOX IMVI melanoma) [µM] | GI50 (A549 NSCLC) [µM] | TGI (A549 NSCLC) [µM] | GI50 (MOLT-4 leukemia) [µM] | TGI (MOLT-4 leukemia) [µM] | GI50 (SK-MEL-5 melanoma) [µM] | TGI (SK-MEL-5 melanoma) [µM] | GI50 (OVCAR-8 ovarian) [µM] | TGI (OVCAR-8 ovarian) [µM] | GI50 (HCT-116 colon) [µM] | TGI (HCT-116 colon) [µM] |
| --- | --- | --- | --- | --- | --- | --- | --- | --- | --- | --- | --- | --- | --- | --- | --- | --- | --- | --- | --- | --- |
| NC(=O)c1sc(-n2cnc3ccccc32)cc1OCc1ccccc1Br | 6.95 | > 25 | 6.38 | > 25 | 1.58 | 23.2 | 5.47 | > 25 | 1.98 | > 25 | 6.06 | > 25 | 3.56 | > 25 | 4.75 | > 25 | 4.83 | 23.5 | 2.61 | > 25 |
| C#Cc1ccc(-n2c(/C=C/c3ccc(C(F)(F)F)cc3)nc3ncccc3c2=O)cc1 | 1.74 | 3.68 | 1.96 | 3.47 | 2.23 | 4.48 | 1.68 | 3.17 | 1.89 | 4.29 | 1.83 | 4.56 | 3.01 | 8.81 | 1.49 | 2.87 | 1.87 | 4.67 | 1.63 | 3.02 |
| O=C(Nc1ccccc1OC(F)(F)F)Nc1n[nH]c2ccccc12 | 36.2 | > 100 | 55.9 | > 100 | 71.8 | > 100 | 30.5 | > 100 | 22.5 | > 100 | 15.7 | 60.1 | 5.91 | > 100 | 28.7 | > 100 | 29.6 | > 100 | 16.2 | > 100 |
| COc1cc(Cc2cnc(/N=C3\C(=O)N(CN4CCN(c5c(F)cc6c(=O)c(C(=O)O)cn(C7CC7)c6c5OC)CC4C)c4ccc(F)cc43)nc2N)cc(OC)c1OC (stereo not given) | 1.35 | 5.18 | 12.6 | 26.1 | 15 | 58.8 | 19.9 | 47.5 | 2.38 | 4.74 | 27 | > 100 | 1.16 | 6.97 | 18.3 | 35.2 | 32.1 | > 100 | 7.78 | 20.6 |
| O=C(N/C(=C\c1ccc(/C=C(\NC(=O)c2ccccc2)c2nc3cc([N+](=O)[O-])ccc3[nH]2)cc1)c1nc2cc([N+](=O)[O-])ccc2[nH]1)c1ccccc1 | – | > 100 | – | 77.2 | – | > 100 | – | > 100 | – | > 100 | – | > 100 | – | > 100 | – | > 100 | – | > 100 | – | > 100 |
| Cn1cnc([N+](=O)[O-])c1Sc1nnc(-c2cccnc2)n1C | – | 36.2 | – | 67.1 | – | 28.9 | – | 55.2 | – | 34.9 | – | > 100 | – | 52 | – | 35.4 | – | 59.7 | – | 40.1 |
